Values after ≈ are worked out from the molar mass of the structure shown.
How the values were obtained:
[1] = tested on: ai5γ group II intron (D135 ribozyme); assay: Fluorescent D135 ribozyme cleavage assay (IC50); format: biochemical, Saccharomyces cerevisiae; conditions: D135 ribozyme cleavage of substrate 17/2 DL, 100 mM MgCl2, 500 mM KCl, 37° C., 10 minutes
Method: The D135 ribozyme (Su et al., 2005, Nucleic Acids Res, 33:6674-6687), fluorescently labeled oligo substrate 17/2 DL (FIG. 1A-FIG. 1D) (both at 20 nM final concentrations in 50 mM MOPS, pH 7.0, 100 mM MgCl2, 0.5M KCl), and the test compounds (final concentration of 10 μM in 50 mM MOPS, pH 7.0, 100 mM MgCl2, 0.5M KCl) were aliquoted onto black non-binding 384-well plates (Corning 3757) using the multidrop combi (ThermoFisherScientific) and pintool (V & P Scientific). The reaction mixtures were incubated at 37° C. for 45 minutes, then the reaction was quenched with 100 mM EDTA and fluorescence intensity was analyzed on a Tecan Infinite multimode plate reader (λex 520 nm, λem 560 nm, 5 nm bandwidth). Data were normalized to untreated wells and wells lacking the D135 ribozyme, and percent of inhibition was calculated using ActivityBase (IDBS). The Z′-factor was calculated as described (Zhang et al., 1999, J Biomol Screen, 4:67-73): Z′=1−3×(σp+σn)/|μp−μn|, • where μp and σn are mean value and standard deviation for the positive control (substrate only), and where μn and σn are mean value and standard deviation for the negative control (no compound). The average Z′-factor from the screen was 0.83±0.03. IC50 Measurement for the Small Molecule Inhibition of the D135 Ribozyme Cleavage Reaction.
Black 96-well plates (Corning 3695) were filled with 50 μl of solution containing 20 nM D135 ribozyme, 20 nM double-labeled substrate 17/2 DL and small molecule inhibitor in 50 mM MOPS, pH 7.0, 100 mM MgCl2 and 500 mM KCl. Small molecule inhibitors were tested at 19 different concentrations ranging from 5 nM to 1 mM. Plates were incubated at 37° C. for 10 minutes, then reaction mixtures were quenched with 100 mM EDTA and analyzed on the Synergy H1 plate reader (BioTek). Each experiment was performed in triplicate. Data were fit to a 4-parameter logistic function c+(d−c)/(1+(x/a)^b), where a is the IC50, b is the slope parameter, c is the minimum response and d is the maximum response. Data are reported as average±s.e.m

C. parapsilosis = assay: MIC determination against C. parapsilosis; format: cell-based, Candida parapsilosis; conditions: Lodderomyces parapsilosis; RPMI-1640, 35° C. or 37° C., turbidity after 24 and 48 hours
Method: Minimal inhibitory concentrations (MICs) for C. parapsilosis were determined in a final volume of 100 μl. Fresh stock solutions of control antifungal drugs (Amphotericin B and Itraconazole) and of test compounds were prepared at 3.2 mg/ml and at 12.8 mg/ml respectively in DMSO. After placing the stock in the first well, solutions of test compounds and antifungal controls were serially diluted 1:2 with DMSO into the first […] successive wells of a 12-well row on a 96-well plate (as described above). After dilution, 2.5 μl from each of these 10 wells were transferred onto a separate 96-well plate and diluted with 122.5 μl of RPMI-1640 medium (Sigma). Wells 11 and 12 contained 2.5 μl DMSO and 122.5 μl of RPMI-1640 as a positive growth control (no compound) and sterility control (no inoculum added). A 50 μl volume was taken from each of the RPMI dilutions (wells 1-12) and transferred to the wells of a third 96-well plate (assay plate), where they were mixed with an equal volume (50 μl) of freshly prepared inoculum of C. parapsilosis in RPMI-1640 medium, set at a density to provide the 0.5×10^3 to 2.5×10^3 colony forming units per 1 mL (except for the sterility control). Sterility control was mixed with 50 μl of sterile medium.
The final concentration range of the assay was 0.25-128 μg/ml for test compounds and 0.0625-32 μg/ml for Amphotericin B and Itraconazole. The final concentration of DMSO was 1%. The assay plate was incubated at 35° C. or 37° C. and visually analyzed for turbidity after 24 and 48 hours of incubation. The lowest compound concentration at which no growth was apparent is reported as the MIC. All experiments were performed in triplicate.

HEK-293T cells = assay: Cytotoxicity in HEK-293T cells (Cell Titer Glo); format: cell-based, human; conditions: Homo sapiens, cytotoxicity, 24 hours with compound, read-out: IC50 HEK-293
Method: HEK-293T cells were cultured in Dulbecco's Modified Eagle's Medium (DMEM) (Gibco) supplemented with 10% Fetal Bovine Serum (FBS, Gibco) and 100 U/ml of Penicillin-Streptomycin (Gibco) at 37° C. and 5% CO2. For the cytotoxicity experiments, cells were aliquoted into black 96-well plates with a clear bottom (Corning 3603) at a concentration of 10,000 cells per well. The cells were grown at 37° C., 5% CO2 for 5-6 hours, then the medium was replaced with the same medium without FBS and cells were grown at 37° C., 5% CO2 for 24 hours. Freshly prepared stock solutions of test compounds (12.8 mg/ml in DMSO) were serially diluted 1:2 with DMSO into the first 11 successive wells of a 12-well row on a 96-well plate as described above. Well 12 was used as a growth control (no compound). […] After incubation, cell viability was determined using the luminescent Cell Titer Glo cell viability assay (Promega), in which 100 μl of the assay reagent was added to each well of the assay plate. After gentle shaking for 7-10 minutes, the plates were analyzed on a Synergy H1 plate reader (BioTek). Luminescence was plotted against the compound concentration and IC50 values were determined by fitting the data to a 4-parameter logistic function c+(d−c)/(1+(x/a)^b), where a is the IC50, b is the slope parameter, c is the minimum response and d is the maximum response. Experiments were replicated to ensure reproducibility.

Compound	IC50 [1]	MIC (C. parapsilosis)	IC50 (HEK-293T cells)
COc1cc(/C=C2\Oc3cc(O)cc(O)c3C2=O)cc(OC)c1OC [APY-003]	> 500 µM	> 128 µg/mL	> 64 µg/mL
COc1cc(/C=C2\Oc3cc(O)cc(O)c3C2=O)cc(OC)c1 [APY-012]	> 500 µM	> 128 µg/mL	–
O=C1/C(=C/c2cc(O)c(O)c(O)c2)Oc2ccccc21 [APY-024, (Z)-2-(3,4,5-Trihydroxybenzylidene)benzofuran-3(2H)-one]	–	8 µg/mL (≈ 29.6 µM)	23 ± 2 µg/mL
O=C(N/N=C/c1cc(F)c(O)c(F)c1)c1cc(O)c(O)c(O)c1 [APY-031]	6.3 µM	32 µg/mL (≈ 98.7 µM)	47.8 µg/mL
O=C(N/N=C/c1ccc(O)cc1)c1cc(O)c(O)c(O)c1 [APY-032]	10.6 µM	8 µg/mL (≈ 27.8 µM)	4.14 µg/mL
O=C(N/N=C/c1ccc(O)cc1Cl)c1cc(O)c(O)c(O)c1 [APY-033]	6.5 µM	8 µg/mL (≈ 24.8 µM)	50 µg/mL
O=C(N/N=C/c1ccc(O)c(Cl)c1)c1cc(O)c(O)c(O)c1 [APY-034]	4.7 µM	8 µg/mL (≈ 24.8 µM)	54.5 µg/mL
COc1cc(/C=N/NC(=O)c2cc(O)c(O)c(O)c2)cc(OC)c1O [APY-035]	7.7 µM	4 µg/mL (≈ 11.5 µM)	39.3 µg/mL
COc1cc(/C=N/NC(=O)c2cc(O)c(O)c(O)c2)cc(O)c1OC [APY-036]	7.7 µM	4 µg/mL (≈ 11.5 µM)	10.4 µg/mL
O=C(N/N=C/c1cccc(O)c1O)c1cc(O)c(O)c(O)c1 [APY-037]	3.7 µM	8 µg/mL (≈ 26.3 µM)	5.4 µg/mL
O=C(N/N=C/c1cccc(O)c1)c1cc(O)c(O)c(O)c1 [APY-040]	9.9 µM	8 µg/mL (≈ 27.8 µM)	30.1 µg/mL
COc1ccc(/C=N/NC(=O)c2cc(O)c(O)c(O)c2)cc1OC [APY-041]	3.8 µM	8 µg/mL (≈ 24.1 µM)	49.5 µg/mL
COc1cccc(/C=N/NC(=O)c2ccc(O)c(O)c2)c1O [APY-054]	> 500 µM	> 128 µg/mL	> 64 µg/mL
O=C(N/N=C/c1cncnc1)c1cc(O)c(O)c(O)c1 [APY-057]	12.9 µM	16 µg/mL (≈ 58.3 µM)	39.4 µg/mL
COc1ccc(/C=C/C=N/NC(=O)c2cc(O)c(O)c(O)c2)cc1 [APY-058]	10.1 µM	4 µg/mL (≈ 12.2 µM)	23 µg/mL
O=C(c1cc(O)c(O)c(O)c1)c1cc2ccccc2o1 [APY-068, Benzofuran-2-yl(3,4,5-trihydroxyphenyl)methanone]	–	16 µg/mL (≈ 59.2 µM)	1.3 ± 0.3 µg/mL
O=C(c1cc(O)c(O)c(O)c1)N1CCc2ccccc2C1 [APY-085]	6.4 µM	32 µg/mL (≈ 112 µM)	18.7 µg/mL
O=C(c1cc(O)c(O)c(O)c1)N1CCC(c2ccccc2)C1 (stereo not drawn) [APY-086]	61 µM	64 µg/mL (≈ 214 µM)	43.7 µg/mL
O=C(c1cc(O)c(O)c(O)c1)N1CCC(c2ccccc2)CC1 [APY-087]	79 µM	32 µg/mL (≈ 102 µM)	8.4 µg/mL

Compound	IC50 [1]	MIC (C. parapsilosis)	IC50 (HEK-293T cells)
O=C(c1cc(O)c(O)c(O)c1)N1CCC(c2noc3cc(F)ccc23)CC1 [APY-088]	24 µM	16 µg/mL (≈ 43 µM)	6.55 µg/mL
CCN(CC)Cc1ccc(-c2ccc(-c3nc(-c4cc(O)c(O)c(O)c4)cs3)cc2)cc1 [APY-092]	1.3 µM	16 µg/mL (≈ 35.8 µM)	24.8 µg/mL
CCCCNS(=O)(=O)c1ccc(-c2ccc3oc(C(=O)c4cc(O)c(O)c(O)c4)cc3c2)cc1 [APY-094, N-Butyl-4-{2[(3,4,5-trihydroxyphenyl)carbonyl]-1-benzofuran-5-yl}benzene-1-sulfonamide]	–	8 to 16 µg/mL (≈ 16.6 to 33.2 µM)	15 ± 4 µg/mL
O=C(c1cc(O)c(O)c(O)c1)c1cc2cc(-c3ccc(C(=O)NC4CCCC4)c(Cl)c3)ccc2o1 [APY-095]	–	4 to 8 µg/mL (≈ 8.13 to 16.3 µM)	2.5 µg/mL
CCN(Cc1ccccc1)C(=O)c1ccc(-c2ccc3oc(C(=O)c4cc(O)c(O)c(O)c4)cc3c2)cc1 [APY-096]	–	2 to 4 µg/mL (≈ 3.94 to 7.88 µM)	1.4 µg/mL
CS(=O)(=O)c1ccc(C(=O)c2cc3cc(-c4ccc(CO)cc4)ccc3o2)cc1 [APY-099]	> 1000 µM	> 128 µg/mL	8.2 µg/mL
O=C(c1ccc([N+](=O)[O-])cc1)c1cc2cc(-c3ccc(CO)cc3)ccc2o1 [APY-100]	> 1000 µM	> 128 µg/mL	> 128 µg/mL
Oc1cc(-c2csc(-c3ccc(Cl)cc3)n2)cc(O)c1O [NED-2014]	46 ± 2 µM	8 µg/mL (≈ 25 µM)	0.6 µg/mL
O=C(c1cc(O)c(O)c(O)c1)N1CCN(c2ccccc2)CC1 [NED-2015]	> 1000 µM	16 to 32 µg/mL (≈ 50.9 to 102 µM)	4.4 µg/mL
Oc1cc(-c2nc3ccc(C(F)(F)F)cc3s2)cc(O)c1O [NED-2016]	> 1000 µM	4 µg/mL (≈ 12.2 µM)	1.5 µg/mL
O=C(O)c1ccc2oc(C(=O)c3cc(O)c(O)c(O)c3)cc2c1 [NED-2017]	> 1000 µM	16 to 32 µg/mL (≈ 50.9 to 102 µM)	–
Cc1ccc(NC(=O)c2ccc3oc(C(=O)c4cc(O)c(O)c(O)c4)cc3c2)c(C)c1 [NED-2021, N-(2,4-dimethylphenyl)-2-(3,4,5-trihydroxybenzoyl)benzofuran-5-carboxamide]	> 1000 µM	32 to 64 µg/mL (≈ 76.7 to 153 µM)	–
CC(C)N1CCN(C(=O)c2ccc3oc(C(=O)c4cc(O)c(O)c(O)c4)cc3c2)CC1 [NED-2022, (4-isopropylpiperazin-1-yl)(2-(3,4,5-trihydroxybenzoyl)-benzofuran-5-yl)methanone]	52 ± 12 µM	16 µg/mL (≈ 37.7 µM)	–
COc1cc(/C=N/NC(=O)c2cc(O)c(O)c(O)c2)cc(OC)c1OC [NED-2039, (E)-3,4,5-trihydroxy-N′-(3,4,5-trimethoxybenzylidene)benzohydrazide]	6 ± 1 µM	8 µg/mL (≈ 22.1 µM)	–
CCN(CC)CCNC(=O)c1c(C)[nH]c(/C=C/C(=O)c2cc(O)c(O)c(O)c2)c1C [NED-2041]	12 ± 4 µM	32 µg/mL (≈ 77 µM)	–
Cc1[nH]c(/C=C/C(=O)c2cc(O)c(O)c(O)c2)c(C)c1C(=O)N1CCC(N(C)C)CC1 [NED-2042]	> 1000 µM	16 µg/mL (≈ 37.4 µM)	–
NNC(=O)c1cc(O)c(O)c(O)c1 [NED-2047, 3,4,5-trihydroxybenzohydrazide]	77 ± 3 µM	16 to 32 µg/mL (≈ 86.9 to 174 µM)	–
O=C(N/N=C/C1CCCCC1)c1cc(O)c(O)c(O)c1 [NED-2251, (E)-N′-(cyclohexylmethylene)-3,4,5-trihydroxybenzohydrazide]	–	16 to 32 µg/mL (≈ 57.5 to 115 µM)	–

Reference: patent US12421257B2, “Compositions and methods for inhibiting group II intron RNA” (YALE UNIVERSITY, priority 2018, dated 2025)
